Laboratory results as given in patent publication US10316050B2, “PT (IV) complexes containing 4,4′-disubstituted-2,2′-bipyridyl and their use in cancer therapy” (THE BOARD OF REGENTS OF THE NEVADA SYSTEM OF HIGHER …, priority 2014, dated 2019).
Like-named read-outs stand apart in the source and are kept apart here.

Columns and labels:
Assay type in all cases: cell-based, human
[1] = system: SK-BR-3 breast cancer cells; assay: MTS cell viability assay, SK-BR-3; details: for anti-proliferative activity compared to cisplatin (in words): SK-BR-3, one and 48 hours treatment (FIG. 8G)
Experimental: (§1) Human breast (HCC38, MCF-7, MDA-MB-231, SK-BR-3, T-47D, and ZR-75-1), lung (A549 and H520), and prostate (DU145 and PC-3) cancer cell lines were obtained from American Culture Type Collection (ATCC). The HCC38, MCF-7, MDA-MB-231, SK-BR-3, T-47D, ZR-75-1, and A549 cells were grown in MEM supplemented with 10% FBS, 25 mM HEPES buffer (pH 7.4), penicillin (100 U/mL), and streptomycin (100 μg/mL). The H520, DU145, and PC-3 cell lines were grown in RPMI-1640 supplemented with 10% FBS, 25 mM HEPES buffer (pH 7.4), penicillin (100 U/mL), and streptomycin (100 μg/mL). All cell lines were maintained at 37° C. in a humidified, 5% CO2 atmosphere.
(§2) Cells were cultured at a density of 2-3.5×10^3 cells per well in flat bottomed 96-well plates in 100 μL of complete growth medium and incubated for 2 days to reach ˜50% confluence. The cells were then treated with solvent or the appropriate drugs (CDDP stock was dissolved in 0.15 M NaCl, carboplatin stock was dissolved in 5% glucose, synthesized Pt(IV) complexes were dissolved in DMSO) for 1 hour, washed three times with 100 μL PBS, and incubated in 100 μL of fresh medium. After 2 days, the medium was replaced with 120 μL of medium containing CellTiter 96® Aqueous One Solution Reagent (MTS reagent) (Promega, Madison, Wis.). The cells were incubated at 37° C. for 4 hours and the cell viability was determined by measuring the absorbance at 490 nm using a Tecan Infinite M1000 microplate reader. The 48 h treatment was done in a similar manner, except the cells were not washed after treatment and the MTS reagent was immediately added. Viability of treated groups was calculated as a percent of control and graphed with GraphPad Prism.
(§3) The anti-proliferative activities of Pt(IV) complexes were determined in two lung (A549 and H520), two prostate (DU145 and PC-3), and six breast (HCC38, MCF-7, MDA-MB-231, SK-BR-3, T-47D, and ZR-75-1) cancer cell lines. The cells were treated with increasing concentrations of cisplatin (CDDP), carboplatin, or the Pt(IV) complexes for 1 or 48 hours, and the viability was measured using an MTS colorimetric cell proliferation assay. Graphs of the results are shown for DU145 (FIG. 8A), PC-3 (FIG. 8B), SK-BR-3 (FIG. 8C), ZR-75-1 (FIG. 8D), A549 (FIG. 8E), and MCF-7 (FIG. 8F).
(§4) The anti-proliferative activities of certain Pt(II) complexes were determined in DU145, PC-3, and SK-BR-3 cells. The cells were treated with increasing concentrations of cisplatin (CDDP) or the Pt(II) complexes for 1 or 48 hours, and the viability was measured using an MTS colorimetric cell proliferation assay.

[2] = system: PC-3 prostate cancer cells; assay: MTS cell viability assay, PC-3; details: PC-3, one and 48 hours treatment (FIG. 8I)
Experimental: as §1, §2, §3, §4

[3] = system: DU145 prostate cancer cells; details: for anti-proliferative activity compared to cisplatin (in words): DU145, one and 48 hours treatment (FIG. 8H); for EC50: read-out: EC50 (effective concentration that resulted in 50% cell viability)
Experimental: as §1, §2, §3, §4

[4] = system: A549 lung cancer cells; assay: MTS cell viability assay, A549; details: read-out: EC50 (effective concentration that resulted in 50% cell viability)
Experimental: as §1, §2, §3

[5] = system: MCF-7 breast cancer cells; assay: MTS cell viability assay, MCF-7; details: read-out: EC50 (effective concentration that resulted in 50% cell viability)
Experimental: as §1, §2, §3

CCOC(=O)c1ccnc(-c2cc(C(=O)OCC)ccn2)c1.[Cl][Pt][Cl] [Pt(II)-COOC2]
anti-proliferative activity compared to cisplatin (in words) [1]: generally more effective than cisplatin
anti-proliferative activity compared to cisplatin (in words) [2]: generally more effective than cisplatin
anti-proliferative activity compared to cisplatin (in words) [3]: generally more effective than cisplatin

N.N.O=C([O-])C1(C(=O)[O-])CCC1.[Pt+2] [Carboplatin, carboplatin, reference compound]
EC50 ([4]; A549, 1 h treatment, Table 2): > 1000 µM
EC50 ([4]; A549, 1 h treatment, Table 3): > 1000 µM
EC50 ([4]; A549, 48 h, Table 5): 300 ± 30 µM
EC50 ([4]; A549, 48 h treatment, Table 4): 300 ± 30 µM
EC50 ([5]; MCF-7, 1 h treatment, Table 2): > 1000 µM
EC50 ([5]; MCF-7, 1 h treatment, Table 3): > 1000 µM
EC50 ([5]; MCF-7, 48 h, Table 5): 800 ± 100 µM
EC50 ([5]; MCF-7, 48 h treatment, Table 4): 800 ± 100 µM
effect on cell viability (in words) ([3]; DU145, 1 hour treatment (FIG. 8A, top), up to 1 mM carboplatin, 100 μM Pt(IV)-1C, 50 μM Pt(IV)-2C): no effect
EC50 ([3]; DU145, 1 h treatment, Table 2): > 1000 µM
EC50 ([3]; DU145, 1 h treatment, Table 3): > 1000 µM
EC50 ([3]; DU145, 48 h, Table 5): 400 ± 100 µM
EC50 ([3]; DU145, 48 h treatment, Table 4): 400 ± 100 µM

COC(=O)c1ccnc(-c2cc(C(=O)OC)ccn2)c1.[Cl][Pt][Cl] [Pt(II)-COOC1]
anti-proliferative activity compared to cisplatin (in words) [1]: generally more effective than cisplatin
anti-proliferative activity compared to cisplatin (in words) [2]: generally more effective than cisplatin
anti-proliferative activity compared to cisplatin (in words) [3]: generally more effective than cisplatin

CCCCCCCCOC(=O)c1ccnc(-c2cc(C(=O)OCCCCCCCC)ccn2)c1.[Cl][Pt][Cl] [Pt(II)-COOC8]
anti-proliferative activity compared to cisplatin (in words) [1]: generally more effective than cisplatin
anti-proliferative activity compared to cisplatin (in words) [2]: generally more effective than cisplatin
anti-proliferative activity compared to cisplatin (in words) [3]: generally more effective than cisplatin

CCOCCOCCOC(=O)c1ccnc(-c2cc(C(=O)OCCOCCOCC)ccn2)c1.[Cl][Pt][Cl] [Pt(II)-COO(C2O)2C2]
reduction in cell viability, one hour versus 48 hours treatment ([1]; SK-BR-3 (FIG. 8G)): greater reduction in cell viability than when they were treated for 48 hours
anti-proliferative activity compared to cisplatin (in words) [1]: not as effective as cisplatin
anti-proliferative activity compared to cisplatin (in words) [2]: not as effective as cisplatin
anti-proliferative activity compared to cisplatin (in words) [3]: not as effective as cisplatin
